Laboratory results reported in patent publication US20150307520A1, “NOVEL HETEROARYL AND HETEROCYCLE COMPOUNDS, COMPOSITIONS AND METHODS THEREOF” (HUTCHISON MEDIPHARMA LIMITED, priority 2012, published 2015).

Experiments:
[1] = target: p110α/p85α (Homo sapiens, UniProt P42336); experiment: Transcreener KINASE Assay, kinase inhibition of p110α/p85α; format: biochemical; details: for PI3Kα IH % @ 1 uM: 1 uM test compound
Protocol: PI3K kinases including p110α/p85α, p110δ/p85α and p110γ are purchased from Invitrogen, and p110β/p85α is from Millipore.
Primary screening data and IC50 values are measured using Transcreener™ KINASE Assay (Bellbrook, Catalog #3003-10K). […] It is a universal, homogenous, high throughput screening (HTS) technology using a far-red, competitive fluorescence polarization immunoassay based on the detection of ADP to monitor the activity of enzymes that catalyze group transfer reactions. Briefly, the Transcreener KINASE Assay is designed as a simple two-part, endpoint assay.
In the first step, the 25 ul kinase reaction is performed by preparing a reaction mixture containing 5 ul test compound (2% DMSO final concentration), 10 ul kinase, buffer (50 mM HEPES, 100 mM NaCl, 1 mM EGTA, 0.03% CHAPS, 3 mM MgCl2, and freshly supplemented 1 mM DTT), and 10 ul 30 uM PIP2/10 uM ATP. The plate is sealed and incubated for 80 min at room temperature. Next, 25 ul ADP detection mix is added per well. The plate is sealed again and incubated for 60 min at room temperature, and then measure fluorescence polarization by Tecan Infinite F500 Reader.
Data is analyzed and IC50s are generated using the add-in software for Microsoft Excel, Xlfit™ (version 2.0). IH %=(ADP amount under 2% DMSO-ADP amount under test compound)/ADP amount under 2% DMSO.

[2] = target: p110β/p85α (Homo sapiens, UniProt P42338); experiment: Transcreener KINASE Assay, kinase inhibition of p110β/p85α; format: biochemical; details: for PI3Kβ IH % @ 1 uM: 1 uM test compound; for IC50: read-out: PI3Kβ IC50
p110β/p85α, sequence (P42338 whole entry): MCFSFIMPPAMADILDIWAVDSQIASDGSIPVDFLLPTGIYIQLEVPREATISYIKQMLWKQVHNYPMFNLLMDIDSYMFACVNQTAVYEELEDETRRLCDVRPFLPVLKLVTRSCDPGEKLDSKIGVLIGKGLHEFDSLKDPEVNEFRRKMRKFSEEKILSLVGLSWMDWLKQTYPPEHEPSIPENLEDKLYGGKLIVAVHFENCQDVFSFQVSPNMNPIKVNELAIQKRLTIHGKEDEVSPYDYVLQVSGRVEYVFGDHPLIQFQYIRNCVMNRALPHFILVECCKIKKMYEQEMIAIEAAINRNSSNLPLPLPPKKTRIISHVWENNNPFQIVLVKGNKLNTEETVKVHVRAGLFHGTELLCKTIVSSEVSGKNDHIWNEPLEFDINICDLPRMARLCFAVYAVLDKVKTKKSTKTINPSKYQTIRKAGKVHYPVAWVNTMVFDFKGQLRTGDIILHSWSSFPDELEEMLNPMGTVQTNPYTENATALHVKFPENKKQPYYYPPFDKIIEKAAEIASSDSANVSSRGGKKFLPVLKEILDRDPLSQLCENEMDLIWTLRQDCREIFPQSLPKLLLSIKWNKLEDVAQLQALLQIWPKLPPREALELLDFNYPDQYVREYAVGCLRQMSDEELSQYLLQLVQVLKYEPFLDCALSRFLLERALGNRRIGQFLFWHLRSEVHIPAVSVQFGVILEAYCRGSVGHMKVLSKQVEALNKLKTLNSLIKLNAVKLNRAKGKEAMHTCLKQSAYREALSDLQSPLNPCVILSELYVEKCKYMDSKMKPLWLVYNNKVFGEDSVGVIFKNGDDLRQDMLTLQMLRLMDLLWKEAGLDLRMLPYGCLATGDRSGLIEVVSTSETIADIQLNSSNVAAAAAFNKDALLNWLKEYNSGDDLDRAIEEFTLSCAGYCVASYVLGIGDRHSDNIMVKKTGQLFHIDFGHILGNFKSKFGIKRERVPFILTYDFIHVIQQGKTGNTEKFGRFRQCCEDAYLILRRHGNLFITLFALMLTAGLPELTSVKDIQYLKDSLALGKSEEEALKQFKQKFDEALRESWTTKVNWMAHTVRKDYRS
p110β/p85α, sequence (P27986 2-724 partner): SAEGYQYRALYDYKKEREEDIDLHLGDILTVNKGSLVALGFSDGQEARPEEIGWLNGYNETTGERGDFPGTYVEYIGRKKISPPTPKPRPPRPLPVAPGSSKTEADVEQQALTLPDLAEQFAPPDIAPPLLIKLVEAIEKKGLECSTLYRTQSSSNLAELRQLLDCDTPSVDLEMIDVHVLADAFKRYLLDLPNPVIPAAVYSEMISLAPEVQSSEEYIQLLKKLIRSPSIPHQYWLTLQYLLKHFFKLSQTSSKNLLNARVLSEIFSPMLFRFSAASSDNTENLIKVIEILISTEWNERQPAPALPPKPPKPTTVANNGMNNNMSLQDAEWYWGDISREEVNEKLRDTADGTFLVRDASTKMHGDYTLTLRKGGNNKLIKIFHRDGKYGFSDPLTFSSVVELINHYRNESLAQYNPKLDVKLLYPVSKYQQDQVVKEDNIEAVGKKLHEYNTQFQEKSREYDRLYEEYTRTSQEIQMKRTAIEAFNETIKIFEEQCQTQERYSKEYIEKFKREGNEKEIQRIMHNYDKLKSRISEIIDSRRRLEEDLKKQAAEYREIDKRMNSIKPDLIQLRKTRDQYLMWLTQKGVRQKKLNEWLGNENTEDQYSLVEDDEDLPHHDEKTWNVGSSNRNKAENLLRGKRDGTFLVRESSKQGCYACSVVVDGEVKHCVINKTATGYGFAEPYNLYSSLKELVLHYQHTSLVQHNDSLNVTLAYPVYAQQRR
Method in brief: (§1)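 Kinase reactions run 80 min at room temperature, pH buffered with 50 mM HEPES plus 3 mM MgCl2 and 0.03% CHAPS; the PIP2/ATP mix added was 30 uM/10 uM. Generated ADP is then read by FP immunoassay.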

[3] = target: p110δ/p85α (Homo sapiens, UniProt O00329); experiment: Transcreener KINASE Assay, kinase inhibition of p110δ/p85α; format: biochemical; details: for PI3Kδ IH % @ 1 uM: 1 uM test compound; for IC50: read-out: PI3Kδ IC50
p110δ/p85α, sequence (O00329 whole entry): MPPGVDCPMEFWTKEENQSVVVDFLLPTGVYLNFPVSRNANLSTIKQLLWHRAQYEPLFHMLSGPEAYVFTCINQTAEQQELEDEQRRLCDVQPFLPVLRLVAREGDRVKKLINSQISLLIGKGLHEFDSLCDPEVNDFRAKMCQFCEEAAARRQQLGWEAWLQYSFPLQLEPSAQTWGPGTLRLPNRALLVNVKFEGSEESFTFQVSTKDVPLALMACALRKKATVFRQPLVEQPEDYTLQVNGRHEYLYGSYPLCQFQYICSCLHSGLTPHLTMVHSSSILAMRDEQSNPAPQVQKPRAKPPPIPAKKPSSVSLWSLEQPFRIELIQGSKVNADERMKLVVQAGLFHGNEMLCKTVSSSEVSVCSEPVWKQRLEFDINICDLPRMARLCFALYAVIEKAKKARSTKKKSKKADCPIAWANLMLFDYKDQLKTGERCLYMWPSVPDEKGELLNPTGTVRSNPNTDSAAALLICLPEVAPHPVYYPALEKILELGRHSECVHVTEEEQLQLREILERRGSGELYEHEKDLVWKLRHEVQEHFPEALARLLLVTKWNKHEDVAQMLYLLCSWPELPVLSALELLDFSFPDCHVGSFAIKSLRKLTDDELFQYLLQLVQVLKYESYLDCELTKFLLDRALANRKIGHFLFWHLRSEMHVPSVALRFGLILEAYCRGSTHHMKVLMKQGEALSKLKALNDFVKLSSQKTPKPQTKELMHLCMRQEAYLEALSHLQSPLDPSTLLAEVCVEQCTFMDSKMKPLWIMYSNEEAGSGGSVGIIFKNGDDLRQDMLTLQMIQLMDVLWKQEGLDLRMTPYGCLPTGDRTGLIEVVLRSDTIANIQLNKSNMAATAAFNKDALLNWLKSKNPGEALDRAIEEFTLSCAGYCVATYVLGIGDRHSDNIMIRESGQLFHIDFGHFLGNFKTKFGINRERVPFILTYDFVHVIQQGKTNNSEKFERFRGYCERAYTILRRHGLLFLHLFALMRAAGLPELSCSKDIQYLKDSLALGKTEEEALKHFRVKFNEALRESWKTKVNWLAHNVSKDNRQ
p110δ/p85α, sequence (P27986 whole entry partner): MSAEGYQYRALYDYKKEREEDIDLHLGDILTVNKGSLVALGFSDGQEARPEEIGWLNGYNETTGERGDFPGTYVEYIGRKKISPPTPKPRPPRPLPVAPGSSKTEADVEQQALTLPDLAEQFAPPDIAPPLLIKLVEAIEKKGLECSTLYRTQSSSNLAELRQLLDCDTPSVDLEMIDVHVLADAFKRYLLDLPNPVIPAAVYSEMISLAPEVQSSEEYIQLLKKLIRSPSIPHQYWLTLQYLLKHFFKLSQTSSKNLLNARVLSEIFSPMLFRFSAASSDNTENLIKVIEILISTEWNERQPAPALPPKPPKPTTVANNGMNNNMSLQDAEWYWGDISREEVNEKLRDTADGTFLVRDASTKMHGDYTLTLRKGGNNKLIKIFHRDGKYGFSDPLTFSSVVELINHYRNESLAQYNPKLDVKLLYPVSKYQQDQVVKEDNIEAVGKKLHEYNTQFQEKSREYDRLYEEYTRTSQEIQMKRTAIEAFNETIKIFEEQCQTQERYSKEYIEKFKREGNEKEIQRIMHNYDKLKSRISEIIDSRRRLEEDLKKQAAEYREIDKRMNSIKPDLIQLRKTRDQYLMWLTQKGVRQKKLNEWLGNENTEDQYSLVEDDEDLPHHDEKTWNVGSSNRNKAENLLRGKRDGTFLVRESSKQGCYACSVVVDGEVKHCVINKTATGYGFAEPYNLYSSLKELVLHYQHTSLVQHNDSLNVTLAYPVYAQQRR
Method in brief: as §1

[4] = target: p110γ (Homo sapiens, UniProt P48736); experiment: Transcreener KINASE Assay, kinase inhibition of p110γ; format: biochemical; details: for PI3Kγ IH % @ 1 uM: 1 uM test compound; for IC50: read-out: PI3Kγ IC50
p110γ, sequence (P48736 whole entry, canonical isoform): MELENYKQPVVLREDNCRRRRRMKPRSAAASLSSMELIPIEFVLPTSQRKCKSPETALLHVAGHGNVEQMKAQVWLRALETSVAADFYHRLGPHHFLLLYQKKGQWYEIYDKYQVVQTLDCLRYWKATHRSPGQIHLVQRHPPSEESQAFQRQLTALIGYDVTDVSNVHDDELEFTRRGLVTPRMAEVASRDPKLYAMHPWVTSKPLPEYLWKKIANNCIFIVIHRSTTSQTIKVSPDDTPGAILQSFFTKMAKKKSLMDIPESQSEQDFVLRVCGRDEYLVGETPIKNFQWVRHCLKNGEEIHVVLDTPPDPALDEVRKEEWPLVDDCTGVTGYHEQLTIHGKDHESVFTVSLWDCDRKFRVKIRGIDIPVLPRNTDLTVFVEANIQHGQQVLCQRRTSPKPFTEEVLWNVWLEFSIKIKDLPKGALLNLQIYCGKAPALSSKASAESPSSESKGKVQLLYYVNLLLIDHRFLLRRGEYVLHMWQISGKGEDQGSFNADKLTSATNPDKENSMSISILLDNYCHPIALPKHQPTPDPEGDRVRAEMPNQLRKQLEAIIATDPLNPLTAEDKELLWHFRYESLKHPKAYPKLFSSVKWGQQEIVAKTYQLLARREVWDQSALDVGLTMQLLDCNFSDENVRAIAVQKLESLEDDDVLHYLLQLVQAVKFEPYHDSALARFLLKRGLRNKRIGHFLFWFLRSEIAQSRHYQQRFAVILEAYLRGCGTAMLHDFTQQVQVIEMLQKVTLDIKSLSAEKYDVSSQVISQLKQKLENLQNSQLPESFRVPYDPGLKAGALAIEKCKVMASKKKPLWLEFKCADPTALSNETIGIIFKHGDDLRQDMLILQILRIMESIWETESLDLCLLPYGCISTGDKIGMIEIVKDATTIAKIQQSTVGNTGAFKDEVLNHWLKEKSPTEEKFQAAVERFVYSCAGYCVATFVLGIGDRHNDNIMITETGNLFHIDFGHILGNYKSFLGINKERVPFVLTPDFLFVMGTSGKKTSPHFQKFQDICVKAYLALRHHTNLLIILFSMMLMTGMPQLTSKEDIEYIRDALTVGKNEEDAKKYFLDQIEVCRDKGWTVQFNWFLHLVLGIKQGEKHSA
Method in brief: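 Kinase activity is monitored as ADP formation, detected by competitive fluorescence polarization with a far-red tracer. Recombinant isoform complexes react for 80 min at room temperature before a 60 min detection step. IC50 values come from fitted dose-response data.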

[5] = target: PI3Kγ (Mus musculus, UniProt Q9JHG7); experiment: Acumen Assay - Raw264.7 p-AKT Assay (C5a stimulated); format: cell-based; details: Raw264.7 macrophage cells, compound 30 min, stimulated with 10 nM C5a for 5 min, p-AKT (Ser473) readout; read-out: PI3Kγ cell-C5a Raw264.7 IC50
Protocol: Acumen Assay—Raw264.7 p-AKT Assay
Acumen® eX3 (A Multilaser Microplate Cytometer For Enhanced High Content Screening): TTP LabTech
3×10^4 Raw264.7 macrophage cells were seeded into 96-well plates with DMEM+10% heat-inactivated FBS at […], 90 ul/well, overnight. After starvation for 3 hr at 37° C. under 5% CO2, Raw264.7 cells were treated with 10 ul/well various concentrations of compound or 0.5% DMSO for 30 min, and then stimulated with 10 ul/well 10 nM C5a for 5 min.
1.) Cells were fixed 110 μL of 4% pre-warmed Paraformaldehyde (2% final), incubate for 45 min at room temperature. 2.) Remove paraformaldehyde solution. Add 100 μL of ice-cold 0.1% Triton X-100 in PBS and leave at 4° C. for 30 min. 3.) Wash once in 100 μL PBS. 4.) Incubate with 100 μL blocking buffer (1% BSA, in PBS) for 2 hours at room temperature. 5.) Wash once for 5 min with 100 ul PBS. 6.) Incubate with 40 μL 1:200 dilution of phospho AKT (Ser473) rabbit antibody in antibody dilution buffer (0.1% BSA, in PBS) overnight at 4° C. 7.) Wash for 3 times for 10 min with 100 ul PBS. 8.) Incubate for 90 min at room temperature with 50 μL of goat anti-rabbit Alex488 antibody at a 1:1,000 dilution in antibody dilution buffer (0.1% BSA, in PBS). Cover plate in foil to keep out of light. 9.) Wash for 3 times for 10 min with 100 μL PBS. 10.) Add 50 μL of 1.5 μM Propidium Iodide solution to each well to determine cell number at a 1:1,000 dilution in PBS (stock: 1.5 mM). 11.) Incubate at room temperature for 30 min. 12.) Seal the plate with a black cover-seal (supplied with plate). 13.) Load the plate into the Acumen Explorer and scan with the appropriate instrument settings.

SMILES	PI3Kα IH % @ 1 uM [1]	PI3Kβ IH % @ 1 uM [2]	IC50 [2]	PI3Kδ IH % @ 1 uM [3]	IC50 [3]	PI3Kγ IH % @ 1 uM [4]	IC50 [4]	IC50 ([1]; read-out: PI3Kα IC50)	IC50 [5]
C[S+]([O-])c1c[nH]c2ncnc(N3CCC[C@H]3c3nn4ccc(Cl)c4c(=O)n3-c3ccccc3)c12 (stereo partly drawn) [Compound 186]	28.4%	>100%	284 nM	>100%	1 nM	>100%	10 nM		
C[S+]([O-])c1c[nH]c2ncnc(N3CCC[C@H]3c3nn4ccc(Cl)c4c(=O)n3-c3ccccc3)c12 (stereo partly drawn) [Compound 187]	14.1%	84.4%		99.0%	1 nM	>100%			
C[S+]([O-])c1c[nH]c2ncnc(N3CCC[C@H]3c3nn4ccc(Cl)c4c(=O)n3-c3ccccc3)c12 (stereo partly drawn) [Compound 188]	14.7%	68.7%		98.8%		>100%			
Cc1ccn2nc([C@@H]3CCCN3c3ncnc(N)c3C#N)n(-c3ccccc3)c(=O)c12 [Compound 189, (S)-4-amino-6-(2-(5-methyl-4-oxo-3-phenyl-3,4-dihydropyrrolo[2,1-f][1,2,4]triazin-2-yl)pyrrolidin-1-yl)pyrimidine-5-carbonitrile]	54.0%	87.0%	87 nM	97.5%	1 nM	89.2%	15 nM		
C[S+]([O-])c1c[nH]c2ncnc(N3CCC[C@H]3c3nn4ccc(Cl)c4c(=O)n3-c3ccccc3)c12 (stereo partly drawn) [Compound 197]	28.4%	>100%	284 nM	>100%	1 nM	>100%	10 nM		
C[S+]([O-])c1c[nH]c2ncnc(N3CCC[C@H]3c3nn4ccc(Cl)c4c(=O)n3-c3cccc(F)c3)c12 (stereo partly drawn) [Compound 198]	17.4%	82.4%	323 nM	>100%	1 nM	>100%	10 nM		
CC(=O)c1cnc(N)nc1N1C[C@H](C)[C@H]1c1nn2ccc(Cl)c2c(=O)n1-c1ccc(F)cc1 [Compound 206]		>100%	181 nM	94%	7 nM	>100%	1 nM	372 nM	
N#Cc1c[nH]c2ncnc(N3C[C@@H](F)C[C@H]3c3nn4ccc(Cl)c4c(=O)n3-c3cccc(F)c3)c12 [Compound 213]	65.2%	85.9%	88 nM	>100%	1 nM	>100%	7 nM		
C[C@H]1CN(c2ncnc3[nH]cc(C#N)c23)C1c1nn2ccc(Cl)c2c(=O)n1-c1ccccc1 (stereo partly drawn) [Compound 235]		69.3%	211 nM	>100%	4 nM	96.2%	12 nM		71 nM
CC(=O)c1c[nH]c2ncnc(N3C[C@@H](F)C[C@H]3c3nn4ccc(Cl)c4c(=O)n3-c3ccccc3)c12 [Compound 268]	38.4%	80.3%	170 nM	>100%	3 nM	>100%			
CC(=O)c1cnc(N)nc1N1C[C@H](C)[C@H]1c1nn2ccc(Cl)c2c(=O)n1-c1ccccc1 [Compound 301]		79.3%	223 nM	>100%	4 nM	>100%	13 nM		20 nM
CO/N=C(\C)c1c[nH]c2ncnc(N3CCC[C@H]3c3nn4ccc(Cl)c4c(=O)n3-c3ccccc3)c12 [Compound 308]	9.7%	56.4%		99.7%		96.7%			
O=c1c2c(Cl)ccn2nc([C@@H]2CCCN2c2ncnc3[nH]cnc23)n1-c1ccccn1 [Compound 311]	10.1%	79.4%	379 nM	>100%		>100%	34 nM		
C[S@+]([O-])c1c[nH]c2ncnc(N3CCC[C@H]3c3nn4ccc(Cl)c4c(=O)n3-c3ccccc3)c12 [Compound 382, 5-chloro-2-((S)-1-(5-((S)-methylsulfinyl)-7H-pyrrolo[2,3-d]pyrimidin-4-yl)pyrrolidin-2-yl)-3-phenylpyrrolo[2,1-f][1,2,4]triazin-4(3H)-one]	14.1%	84.4%	88 nM	99.0%	1 nM	>100%	33 nM		
C[S@@+]([O-])c1c[nH]c2ncnc(N3CCC[C@H]3c3nn4ccc(Cl)c4c(=O)n3-c3ccccc3)c12 [Compound 383, 5-chloro-2-((S)-1-(5-((R)-methylsulfinyl)-7H-pyrrolo[2,3-d]pyrimidin-4-yl)pyrrolidin-2-yl)-3-phenylpyrrolo[2,1-f][1,2,4]triazin-4(3H)-one]	14.7%	68.7%	741 nM	98.8%	4 nM	>100%	17 nM		
C[C@H]1CN(c2nc(N)ncc2C#N)C1c1nn2ccc(Cl)c2c(=O)n1-c1ccccc1 (stereo partly drawn) [Compound 431]		51.3%		96.2%	7 nM	95.9%	8 nM		85 nM
Cc1nc(N)nc(N2C[C@H](C)C2c2nn3ccc(F)c3c(=O)n2-c2ccccc2)c1C#N (stereo partly drawn) [Compound 436]		78.5%	24 nM	>100%	1 nM	98.7%	2 nM		37 nM
Cc1nc(N)nc(N2C[C@H](C)[C@H]2c2nn3ccc(Cl)c3c(=O)n2-c2cccc(F)c2)c1C#N [Compound 461]		80.5%	54 nM	>100%	0.4 nM	>100%	7 nM		18 nM
Cc1nc(N)nc(N2C[C@H](C)[C@H]2c2nn3ccc(F)c3c(=O)n2-c2cccc(F)c2)c1C#N [Compound 462]		80.5%	185 nM	>100%	1 nM	>100%	5 nM		90 nM
CC(=O)c1cnc(N)nc1N1C[C@H](C)[C@H]1c1nn2ccc(Cl)c2c(=O)n1-c1cccc(F)c1 [Compound 467]		77.1%	374 nM	89.7%	1 nM	94.3%	5 nM		39 nM
